Measurements reported in article PMC7252619 (PLoS ONE, 2020).
Like-named read-outs stand apart in the source and are kept apart here.

Legend:
CK1d = biological target: T1, CK1d (Homo sapiens, UniProt P48730); test: Kinase activity test (ReactionBiology), % enzyme activity relative to DMSO; assay type: biochemical; details: CK1d
T1 construct: purchased ReactionBiology

VEGFR2 = VEGFR2 (Homo sapiens, UniProt P35968); test: as above; assay type: biochemical; set-up: purchased ReactionBiology; details: VEGFR2;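 note: VEGFR2 was one member of a ten-kinase screening panel testing marketed FDA-approved drugs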
Chain of VEGFR2 (P35968 20-1356): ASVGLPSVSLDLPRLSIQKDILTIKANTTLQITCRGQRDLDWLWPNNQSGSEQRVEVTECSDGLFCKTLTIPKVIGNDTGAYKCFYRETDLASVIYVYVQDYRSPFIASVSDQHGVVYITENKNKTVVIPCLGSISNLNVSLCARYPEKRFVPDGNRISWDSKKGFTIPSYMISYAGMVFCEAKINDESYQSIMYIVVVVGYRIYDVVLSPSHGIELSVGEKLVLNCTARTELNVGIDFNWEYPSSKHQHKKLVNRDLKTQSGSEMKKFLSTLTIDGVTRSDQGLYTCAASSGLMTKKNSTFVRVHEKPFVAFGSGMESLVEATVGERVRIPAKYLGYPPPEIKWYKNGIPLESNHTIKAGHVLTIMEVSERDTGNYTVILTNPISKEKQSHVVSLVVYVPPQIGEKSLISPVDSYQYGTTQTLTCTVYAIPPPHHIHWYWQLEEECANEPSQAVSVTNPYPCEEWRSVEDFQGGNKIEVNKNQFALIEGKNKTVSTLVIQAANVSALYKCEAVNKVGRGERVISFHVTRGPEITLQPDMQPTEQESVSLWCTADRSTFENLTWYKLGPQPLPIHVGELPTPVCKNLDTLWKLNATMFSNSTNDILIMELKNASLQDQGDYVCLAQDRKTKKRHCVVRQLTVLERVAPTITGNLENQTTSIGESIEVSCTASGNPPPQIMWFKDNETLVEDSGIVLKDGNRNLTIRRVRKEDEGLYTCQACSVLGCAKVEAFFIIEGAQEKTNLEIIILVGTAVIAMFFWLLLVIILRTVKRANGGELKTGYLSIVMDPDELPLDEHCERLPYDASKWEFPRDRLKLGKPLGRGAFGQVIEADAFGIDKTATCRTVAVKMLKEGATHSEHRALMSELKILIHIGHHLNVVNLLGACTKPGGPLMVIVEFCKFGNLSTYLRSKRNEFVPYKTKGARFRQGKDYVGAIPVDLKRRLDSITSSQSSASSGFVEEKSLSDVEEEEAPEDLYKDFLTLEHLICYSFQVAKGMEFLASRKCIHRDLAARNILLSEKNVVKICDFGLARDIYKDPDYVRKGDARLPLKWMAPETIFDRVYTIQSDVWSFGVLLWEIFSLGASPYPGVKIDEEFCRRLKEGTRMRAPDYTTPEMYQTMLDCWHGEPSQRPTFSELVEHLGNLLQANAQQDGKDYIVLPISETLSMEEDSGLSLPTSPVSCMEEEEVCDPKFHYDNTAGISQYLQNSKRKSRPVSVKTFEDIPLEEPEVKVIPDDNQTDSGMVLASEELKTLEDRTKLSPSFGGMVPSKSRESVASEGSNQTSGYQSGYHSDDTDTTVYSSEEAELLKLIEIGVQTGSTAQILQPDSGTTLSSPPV

[1] = 1 uM, Average, read-out: % Enzyme Activity (relative to DMSO controls), Average
[2] = 1 uM, replicate Data 1, read-out: % Enzyme Activity (relative to DMSO controls), Data 1
[3] = 1 uM, replicate Data 2, read-out: % Enzyme Activity (relative to DMSO controls), Data 2
[4] = 10 uM, Average, read-out: % Enzyme Activity (relative to DMSO controls), Average
[5] = 10 uM, replicate Data 1, read-out: % Enzyme Activity (relative to DMSO controls), Data 1
[6] = 10 uM, replicate Data 2, read-out: % Enzyme Activity (relative to DMSO controls), Data 2

T1 sequence (P48730 whole entry): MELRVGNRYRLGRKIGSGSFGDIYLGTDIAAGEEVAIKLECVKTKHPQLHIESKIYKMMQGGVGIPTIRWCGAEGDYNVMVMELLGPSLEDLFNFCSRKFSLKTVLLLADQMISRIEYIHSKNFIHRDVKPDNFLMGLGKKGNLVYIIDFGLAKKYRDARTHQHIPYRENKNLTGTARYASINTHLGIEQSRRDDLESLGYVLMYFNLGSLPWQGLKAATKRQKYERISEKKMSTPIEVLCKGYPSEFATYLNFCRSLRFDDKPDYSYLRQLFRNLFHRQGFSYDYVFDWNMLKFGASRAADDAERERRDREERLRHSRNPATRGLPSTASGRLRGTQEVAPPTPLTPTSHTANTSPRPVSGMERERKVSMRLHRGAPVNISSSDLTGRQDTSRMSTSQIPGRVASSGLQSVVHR

SMILES | % Enzyme Activity (relative to DMSO controls), Average (CK1d; 1 uM, Average) [%] | % Enzyme Activity (relative to DMSO controls), Data 1 (CK1d; 1 uM, replicate Data 1) [%] | % Enzyme Activity (relative to DMSO controls), Data 2 (CK1d; 1 uM, replicate Data 2) [%] | % Enzyme Activity (relative to DMSO controls), Average (CK1d; 10 uM, Average) [%] | % Enzyme Activity (relative to DMSO controls), Data 1 (CK1d; 10 uM, replicate Data 1) [%] | % Enzyme Activity (relative to DMSO controls), Data 2 (CK1d; 10 uM, replicate Data 2) [%] | % Enzyme Activity (relative to DMSO controls), Average (VEGFR2; 1 uM, Average) [%] | % Enzyme Activity (relative to DMSO controls), Data 1 (VEGFR2; 1 uM, replicate Data 1) [%] | % Enzyme Activity (relative to DMSO controls), Data 2 (VEGFR2; 1 uM, replicate Data 2) [%] | % Enzyme Activity (relative to DMSO controls), Average (VEGFR2; 10 uM, Average) [%] | % Enzyme Activity (relative to DMSO controls), Data 1 (VEGFR2; 10 uM, replicate Data 1) [%] | % Enzyme Activity (relative to DMSO controls), Data 2 (VEGFR2; 10 uM, replicate Data 2) [%] | other results
CO[C@@]12[C@H](COC(N)=O)C3=C(C(=O)C(C)=C(N)C3=O)N1C[C@@H]1N[C@@H]12 [Mitomycin] | 98.48 | 100.68 | 96.28 | 158.59 | 209.38 | 107.8 | – | – | – | – | – | – | –
CCCCNc1ccc(C(=O)OCCN(C)C)cc1 [Tetracaine] | 110.04 | 103.65 | 116.43 | 118.78 | 119.29 | 118.26 | – | – | – | – | – | – | –
C[C@]12CC[C@@H]3c4ccc(O)cc4CC[C@H]3[C@@H]1CCC2=O [Estrone] | – | – | – | – | – | – | 106.40 | 108.92 | 103.87 | 104.79 | 105.29 | 104.29 | –
CNCCCN1c2ccccc2CCc2ccccc21 [Desipramine] | – | – | – | 133.63 | – | – | 96.96 | – | – | 89.29 | – | – | –
Cn1c(=O)cc(N2CCC[C@@H](N)C2)n(Cc2ccccc2C#N)c1=O [Alogliptin] | – | – | – | – | – | – | 110.86 | 108.92 | 112.79 | 104.24 | 106.32 | 102.16 | –
CC(C)(Oc1ccc(CCNC(=O)c2ccc(Cl)cc2)cc1)C(=O)O [Bezafibrate] | – | – | – | – | – | – | 106.10 | 100.57 | 111.63 | 106.53 | 106.16 | 106.89 | –
CN1CC(=O)N2[C@H](c3ccc4c(c3)OCO4)c3[nH]c4ccccc4c3C[C@@H]2C1=O [Tadalafil] | 103.78 | 105.89 | 101.67 | 108.37 | 107.23 | 109.5 | 102.42 | 103.18 | 101.65 | 97.95 | 98.92 | 96.97 | –
CC(C)Nc1cccnc1N1CCN(C(=O)c2cc3cc(NS(C)(=O)=O)ccc3[nH]2)CC1 [Delavirdine] | – | – | – | 101.06 | – | – | – | – | – | – | – | – | –
COc1ccc2c(c1)c(CC(=O)O)c(C)n2C(=O)c1ccc(Cl)cc1 [Iomethacin] | 102.15 | 102.08 | 102.21 | 95.39 | 98.78 | 92 | 105.43 | 105.61 | 105.25 | 102.46 | 106.14 | 98.78 | –
CC1=Nc2ccc(Cl)cc2S(=O)(=O)N1 [Diazoxide] | 95.10 | 99.58 | 90.62 | 97.15 | 96.56 | 97.73 | – | – | – | – | – | – | –
CC1(C)S[C@@H]2[C@H](NC(=O)[C@H](N)c3ccccc3)C(=O)N2[C@H]1C(=O)O [Ampicillin] | – | – | – | – | – | – | 99.13 | 103.06 | 95.2 | 96.01 | 95.11 | 96.91 | –
O=c1[nH]cc(F)c(=O)[nH]1 [Fluorouracil] | 104.91 | 106.12 | 103.69 | 106.01 | 110.21 | 101.8 | 113.72 | 118.24 | 109.2 | 105.92 | 109.47 | 102.36 | –
Cc1ccc(C(=O)c2cc(O)c(O)c([N+](=O)[O-])c2)cc1 [Tolcapone, reference compound] | – | – | – | – | – | – | – | – | – | – | – | – | remaining activity at 1 µM (CK1d; [1]): 91.7%; remaining activity at 1 µM (CK1d; [2]): 91.5%; remaining activity at 1 µM (CK1d; [3]): 91.9%; remaining activity at 10 µM (CK1d; [4]): 35.6%; remaining activity at 10 µM (CK1d; [5]): 33.2%; remaining activity at 10 µM (CK1d; [6]): 38%; remaining activity at 1 µM (CK1d; compound 1μM, relative to DMSO controls, read-out: % Enzyme activity at 1μM): 91.7%; remaining activity at 10 µM (CK1d; compound 10μM, relative to DMSO controls, read-out: % Enzyme activity at 10μM): 35.6%
CCC1=C(C)CN(C(=O)NCCc2ccc(S(=O)(=O)NC(=O)N[C@H]3CC[C@H](C)CC3)cc2)C1=O [Glimepiride] | 106.25 | 107.91 | 104.59 | 89.28 | 92.55 | 86 | – | – | – | – | – | – | –
COc1cccc2c1C(=O)c1c(O)c3c(c(O)c1C2=O)C[C@@](O)(C(=O)CO)C[C@@H]3O[C@H]1C[C@H](N)[C@H](O)[C@H](C)O1 [Doxorubicin] | – | – | – | – | – | – | 110.51 | 112.09 | 108.92 | 100.16 | 99.85 | 100.47 | –
CC(=O)[C@]1(O)Cc2c(O)c3c(c(O)c2[C@@H](O[C@H]2C[C@H](N)[C@H](O)[C@H](C)O2)C1)C(=O)c1ccccc1C3=O [Idarubicin] | – | – | – | – | – | – | 111.69 | 111.85 | 111.52 | 106.65 | 105.86 | 107.43 | –
CS(=O)(=O)c1ccc(C(=O)Nc2ccc(Cl)c(-c3ccccn3)c2)c(Cl)c1 [Vismodegib] | – | – | – | – | – | – | – | – | – | – | – | – | remaining activity at 1 µM (VEGFR2; [1]): 103%; remaining activity at 1 µM (VEGFR2; [2]): 103%; remaining activity at 1 µM (VEGFR2; [3]): 103%; remaining activity at 10 µM (VEGFR2; [4]): 91.1%; remaining activity at 10 µM (VEGFR2; [5]): 97.8%; remaining activity at 10 µM (VEGFR2; [6]): 84.5%
CCCc1nc(C)c2c(=O)[nH]c(-c3cc(S(=O)(=O)N4CCN(CC)CC4)ccc3OCC)nn12 [Vardenafil] | – | – | – | – | – | – | – | – | – | – | – | – | remaining activity at 1 µM (CK1d; [1]): 102%; remaining activity at 1 µM (CK1d; [2]): 100%; remaining activity at 1 µM (CK1d; [3]): 104%; remaining activity at 10 µM (CK1d; [4]): 110%; remaining activity at 10 µM (CK1d; [5]): 107%; remaining activity at 10 µM (CK1d; [6]): 112%
CC(C)CN(C[C@@H](O)[C@H](Cc1ccccc1)NC(=O)O[C@H]1CCOC1)S(=O)(=O)c1ccc(N)cc1 [Amprenavir] | 107.55 | – | – | – | – | – | – | – | – | – | – | – | –
CCCCC[C@H](O)/C=C/[C@H]1[C@H](O)CC(=O)[C@@H]1CCCCCCC(=O)O [Alprostadil] | 100.17 | 100.59 | 99.74 | 106.64 | 108.06 | 105.21 | – | – | – | – | – | – | –
